pEC50, pIC50: −log10 of the molar value.
What was measured:
[1] = target: human KEAP1 (N-term, residues 321-609) (Homo sapiens, UniProt Q14145); experiment: biochemical;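 note: fluorescence polarization competition assay of Kelch domain binding to NRF2, 12-point 1:3 dilution series from 10 µM, read after 1 h at room temperature, floor 10 nM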
[2] = tested on: NQO1 mRNA in BEAS-2B cells; experiment: Beas2B NQO1 mRNA cell based assay; parameters: species or system human; conditions: Homo sapiens, BEAS-2B, 24 h, 24 h compound treatment, increase in NQO1 mRNA vs vehicle (0.1% DMSO), read-out: EC50
How it was run: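 BEAS-2B human bronchial epithelial cells exposed to compound for 24 h at 37 °C, 5% CO2. NQO1 mRNA measured by one-step TaqMan RT-qPCR on unpurified lysates, normalized to β-actin; relative expression by ΔΔCT method.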

human KEAP1 (N-term, residues 321-609), sequence (Q14145 321-609): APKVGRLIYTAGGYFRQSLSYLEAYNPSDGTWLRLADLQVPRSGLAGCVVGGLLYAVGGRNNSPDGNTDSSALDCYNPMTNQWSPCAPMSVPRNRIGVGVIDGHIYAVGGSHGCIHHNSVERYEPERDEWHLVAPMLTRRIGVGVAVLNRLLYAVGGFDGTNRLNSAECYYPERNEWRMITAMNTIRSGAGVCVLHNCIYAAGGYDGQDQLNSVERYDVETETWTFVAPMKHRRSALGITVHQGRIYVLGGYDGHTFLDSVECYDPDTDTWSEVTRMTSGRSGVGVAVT

Compound	pIC50 [1]	pEC50 [2]
Cc1nnc(COc2ccc(Cl)c3c2[C@@H](CN2CC4(CC4)CC2=O)N(C(=O)[C@@H]2CCCC[C@]2(C)C(=O)O)CC3)n1C1CC1 [Example 177, (1S,2R)-2-((S)-5-chloro-8-((4-cyclopropyl-5-methyl-4H-1,2,4-triazol-3-yl)methoxy)-1-((6-oxo-5-azaspiro[2.4]heptan-5-yl)methyl)-1,2,3,4-tetrahydroisoquinoline-2-carbonyl)-1-methylcyclohexane-1-carboxylic acid]	8.28	8.66
Cn1nnc(COc2ccc(F)c3c2[C@@H](CN2CCCC2=O)N(C(=O)[C@@H]2CCCC[C@]2(C)C(=O)O)CC3)c1C(F)(F)F [Example 178, (1S,2R)-2-((S)-5-fluoro-8-((1-methyl-5-(trifluoromethyl)-1H-1,2,3-triazol-4-yl)methoxy)-1-((2-oxopyrrolidin-1-yl)methyl)-1,2,3,4-tetrahydroisoquinoline-2-carbonyl)-1-methylcyclohexane-1-carboxylic acid]	8.19	7.89
Cc1nnc(COc2ccc(Cl)c3c2[C@@H](CN2CC4(CC4)CC2=O)N(C(=O)[C@@H]2CCCC[C@]2(C)C(=O)O)CC3)n1C [Example 179, (1S,2R)-2-((S)-5-chloro-8-((4,5-dimethyl-4H-1,2,4-triazol-3-yl)methoxy)-1-((6-oxo-5-azaspiro[2.4]heptan-5-yl)methyl)-1,2,3,4-tetrahydroisoquinoline-2-carbonyl)-1-methylcyclohexane-1-carboxylic acid]	8.28	8.39
Cn1c(COc2ccc(Cl)c3c2[C@@H](CN2CC4(CC4)CC2=O)N(C(=O)[C@@H]2CCCC[C@]2(C)C(=O)O)CC3)nnc1C1CC1 [Example 184, (1S,2R)-2-((S)-5-chloro-8-((5-cyclopropyl-4-methyl-4H-1,2,4-triazol-3-yl)methoxy)-1-((6-oxo-5-azaspiro[2.4]heptan-5-yl)methyl)-1,2,3,4-tetrahydroisoquinoline-2-carbonyl)-1-methylcyclohexane-1-carboxylic acid]	8.54	8.25
Cn1cnc(COc2ccc(Cl)c3c2[C@@H](CN2CC4(CC4)CC2=O)N(C(=O)[C@@H]2CCCC[C@]2(C)C(=O)O)CC3)c1 [Example 185, (1S,2R)-2-((S)-5-chloro-8-((1-methyl-1H-imidazol-4-yl)methoxy)-1-((6-oxo-5-azaspiro[2.4]heptan-5-yl)methyl)-1,2,3,4-tetrahydroisoquinoline-2-carbonyl)-1-methylcyclohexane-1-carboxylic acid]	8.21	7.25
C[C@]1(C(=O)O)CCCC[C@H]1C(=O)N1CCc2c(Cl)ccc(OCc3nnc4n3CCCC4)c2[C@H]1CN1CC2(CC2)CC1=O [Example 186, (1S,2R)-2-((S)-5-chloro-1-((6-oxo-5-azaspiro[2.4]heptan-5-yl)methyl)-8-((5,6,7,8-tetrahydro-[1,2,4]triazolo[4,3-a]pyridin-3-yl)methoxy)-1,2,3,4-tetrahydroisoquinoline-2-carbonyl)-1-methylcyclohexane-1-carboxylic acid]	8.25	8.33
C[C@]1(C(=O)O)CCCC[C@H]1C(=O)N1CCc2c(Cl)ccc(O[C@H]3CCN(S(C)(=O)=O)C3)c2[C@H]1CN1CC2(CC2)CC1=O [Example 187, (1S,2R)-2-((S)-5-chloro-8-(((S)-1-(methylsulfonyl)pyrrolidin-3-yl)oxy)-1-((6-oxo-5-azaspiro[2.4]heptan-5-yl)methyl)-1,2,3,4-tetrahydroisoquinoline-2-carbonyl)-1-methylcyclohexane-1-carboxylic acid]	8.22	7.37
CC(=O)N1CC[C@H](Oc2ccc(Cl)c3c2[C@@H](CN2CC4(CC4)CC2=O)N(C(=O)[C@@H]2CCCC[C@]2(C)C(=O)O)CC3)C1 [Example 188, (1S,2R)-2-((S)-8-(((S)-1-acetylpyrrolidin-3-yl)oxy)-5-chloro-1-((6-oxo-5-azaspiro [2.4]heptan-5-yl)methyl)-1,2,3,4-tetrahydroisoquinoline-2-carbonyl)-1-methylcyclohexane-1-carboxylic acid]	8.31	8.10
Cn1nnc(COc2cccc3c2[C@@H](CN2CCCC2=O)N(C(=O)[C@@H]2CCCC[C@]2(C)C(=O)O)CC3)c1C(F)(F)F [Example 190, (1S,2R)-1-methyl-2-((S)-8-((1-methyl-5-(trifluoromethyl)-1H-1,2,3-triazol-4-yl)methoxy)-1-((2-oxopyrrolidin-1-yl)methyl)-1,2,3,4-tetrahydroisoquinoline-2-carbonyl)cyclohexane-1-carboxylic acid]	8.25	8.07

Second part, led by results:

pIC50 [1]	Compound	pEC50 [2]
8.12	C[C@]1(C(=O)O)CCC[C@H]1C(=O)N1CCc2c(Cl)ccc(OCc3nnn4c3CCCC4)c2[C@H]1CN1CC2(CC2)CC1=O [Example 180, (1S,2R)-2-((S)-5-chloro-1-((6-oxo-5-azaspiro[2.4]heptan-5-yl)methyl)-8-((4,5,6,7-tetrahydro-[1,2,3]triazolo[1,5-a]pyridin-3-yl)methoxy)-1,2,3,4-tetrahydroisoquinoline-2-carbonyl)-1-methylcyclopentane-1-carboxylic acid]	8.96
8.29	C[C@]1(C(=O)O)CCCC[C@H]1C(=O)N1CCc2c(Cl)ccc(OCc3nnn4c3CCC4)c2[C@H]1CN1CC2(CC2)CC1=O [Example 181, (1S,2R)-2-((S)-5-chloro-8-((5,6-dihydro-4H-pyrrolo[1,2-c][1,2,3]triazol-3-yl)methoxy)-1-((6-oxo-5-azaspiro [2.4]heptan-5-yl)methyl)-1,2,3,4-tetrahydroisoquinoline-2-carbonyl)-1-methylcyclohexane-1-carboxylic acid]	9.16
8.29	C[C@]1(C(=O)O)CCCC[C@H]1C(=O)N1CCc2c(F)ccc(OCc3nnn4c3CCCC4)c2[C@H]1CN1CC2(CC2)CC1=O [Example 182, (1S,2R)-2-((S)-5-fluoro-1-((6-oxo-5-azaspiro[2.4]heptan-5-yl)methyl)-8-((4,5,6,7-tetrahydro-[1,2,3]triazolo[1,5-a]pyridin-3-yl)methoxy)-1,2,3,4-tetrahydroisoquinoline-2-carbonyl)-1-methylcyclohexane-1-carboxylic acid]	9.08
8.27	C[C@]1(C(=O)O)CCCC[C@H]1C(=O)N1CCc2c(Cl)ccc(OCc3nnc4n3CCC4)c2[C@H]1CN1CC2(CC2)CC1=O [Example 183, (1S,2R)-2-((S)-5-chloro-8-((6,7-dihydro-5H-pyrrolo[2,1-c][1,2,4]triazol-3-yl)methoxy)-1-((6-oxo-5-azaspiro [2.4]heptan-5-yl)methyl)-1,2,3,4-tetrahydroisoquinoline-2-carbonyl)-1-methylcyclohexane-1-carboxylic acid]	8.24
8.30	C[C@]1(C(=O)O)CCCC[C@H]1C(=O)N1CCc2c(Cl)ccc(OCc3nnn4c3COCC4)c2[C@H]1CN1CC2(CC2)CC1=O [Example 189, (1S,2R)-2-((S)-5-chloro-8-((6,7-dihydro-4H-[1,2,3]triazolo[5,1-c][1,4]oxazin-3-yl)methoxy)-1-((6-oxo-5-azaspiro[2.4]heptan-5-yl)methyl)-1,2,3,4-tetrahydroisoquinoline-2-carbonyl)-1-methylcyclohexane-1-carboxylic acid]	9.57
